Laboratory results from paper PMC7376644 (Pharmacology Research & Perspectives, 2020).
“And” between values parts separate entries of the source, which are not always exact repeats. Equal values may be shown once.

Assays:
CYP1A2 [1] = assay: CYP selective diagnostic inhibition studies in HLM, furafylline; assay type: in vitro ADME, human; conditions: furafylline 10 µmol/L
Description: (§1) Reactions were carried out in triplicate in 96 well plates. Each reaction was measured at 2 time points, that is at 0 and 30 minutes. […] Furafylline, KTZ, ticlopidine, and quinidine were used as diagnostic inhibitors for CYP 1A2, 3A4/5, 2C19 and 2D6, respectively. The reactions were initiated by addition of NADPH after a pre‐incubation of 5 minutes at 37°C. All reactions were terminated by the addition of 150 µL ice‐cold ACN. Internal standard (0.2 µmol/L DPZ) was added to ACN prior to termination of the assay. This was followed by centrifugation at 4500 g for 20 minutes. An aliquot (50 µL) supernatant was collected and 5 µL was injected and analyzed by liquid chromatography/tandem mass spectrometry (LC/MS/MS). The percent effect of each inhibitor was the estimated contribution of the inhibited CYP calculated using the relationship below: %contribution=amount remaining with inhibitor‐amount remaining without inhibitor/amount remaining without inhibitor×100.

CYP2D6 [2] = assay: CYP selective diagnostic inhibition studies in HLM, quinidine; assay type: in vitro ADME, human; conditions: quinidine 10 µmol/L
Description: as §1

CYP2C19 [3] = assay: CYP selective diagnostic inhibition studies in HLM, ticlopidine; assay type: in vitro ADME, human; conditions: ticlopidine 10 µmol/L
Description: as §1

CYP3A4/5 = assay: CYP selective diagnostic inhibition studies in HLM, ketoconazole; assay type: in vitro ADME, human; conditions: ketoconazole 10 µmol/L
Description: as §1

HLM = assay: Enzyme kinetics of hydroxylated metabolites formation; assay type: in vitro ADME, human
Description: The reactions were carried out in duplicate at each time point. Incubation conditions used for the determination of K M and V max were optimized for linearity with respect to time and protein concentrations. […] Metabolites were analyzed by LC‐MS/MS as described below. The K M and V max values of each marker substrate were determined using nonlinear least squares regression analysis in GraFit software (version 3.0, Erithacus Software Limited) and SigmaPlot Enzyme Kinetics Module for Windows 7.0 (SPSS, Inc). […]

[4] = cited from earlier work
CYP1A2 [5] = target: T1, CYP1A2 (Homo sapiens, UniProt P05177); assay: in vitro; conditions: recombinant CYP1A2, pH 7.4
T1 sequence (P05177 1-516): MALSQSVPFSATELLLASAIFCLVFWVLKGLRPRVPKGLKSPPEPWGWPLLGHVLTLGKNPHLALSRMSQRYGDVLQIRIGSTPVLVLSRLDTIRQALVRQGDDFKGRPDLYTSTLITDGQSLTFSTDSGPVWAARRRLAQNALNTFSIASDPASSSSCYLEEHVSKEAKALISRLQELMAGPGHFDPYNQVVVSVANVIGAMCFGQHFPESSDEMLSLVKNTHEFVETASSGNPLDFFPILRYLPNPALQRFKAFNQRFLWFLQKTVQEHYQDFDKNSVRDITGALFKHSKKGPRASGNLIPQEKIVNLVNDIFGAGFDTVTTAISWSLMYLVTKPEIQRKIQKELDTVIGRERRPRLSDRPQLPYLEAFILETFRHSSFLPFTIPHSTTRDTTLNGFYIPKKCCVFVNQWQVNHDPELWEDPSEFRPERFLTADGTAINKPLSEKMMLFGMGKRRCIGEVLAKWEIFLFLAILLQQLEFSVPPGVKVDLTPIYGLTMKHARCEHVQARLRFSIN

CYP2C19 [6] = target: T2, CYP2C19 (Homo sapiens, UniProt P33261); assay: in vitro; conditions: recombinant CYP2C19, pH 7.4
T2 sequence (P33261 whole entry): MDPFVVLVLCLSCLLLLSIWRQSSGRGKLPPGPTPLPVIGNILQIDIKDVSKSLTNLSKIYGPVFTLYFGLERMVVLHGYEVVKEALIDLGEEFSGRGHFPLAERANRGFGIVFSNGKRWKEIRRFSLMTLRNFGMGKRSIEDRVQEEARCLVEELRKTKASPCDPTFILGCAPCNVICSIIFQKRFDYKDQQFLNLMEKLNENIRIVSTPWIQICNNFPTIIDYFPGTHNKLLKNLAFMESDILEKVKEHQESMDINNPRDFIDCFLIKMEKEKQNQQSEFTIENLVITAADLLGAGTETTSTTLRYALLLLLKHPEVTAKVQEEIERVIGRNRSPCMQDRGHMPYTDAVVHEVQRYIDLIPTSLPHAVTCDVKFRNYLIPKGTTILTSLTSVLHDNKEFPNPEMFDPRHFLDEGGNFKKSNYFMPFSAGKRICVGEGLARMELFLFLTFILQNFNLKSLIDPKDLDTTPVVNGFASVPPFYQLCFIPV

CYP2C19 [7] = target: T2, CYP2C19; assay: Intrinsic clearance, substrate depletion approach; conditions: rCYP2C19, substrate depletion
CYP2D6 [8] = target: CYP2D6 (Homo sapiens, UniProt P10635); assay: Intrinsic clearance, substrate depletion approach; conditions: rCYP2D6, substrate depletion
CYP2D6 (Homo sapiens, UniProt P10635), sequence (P10635 whole entry): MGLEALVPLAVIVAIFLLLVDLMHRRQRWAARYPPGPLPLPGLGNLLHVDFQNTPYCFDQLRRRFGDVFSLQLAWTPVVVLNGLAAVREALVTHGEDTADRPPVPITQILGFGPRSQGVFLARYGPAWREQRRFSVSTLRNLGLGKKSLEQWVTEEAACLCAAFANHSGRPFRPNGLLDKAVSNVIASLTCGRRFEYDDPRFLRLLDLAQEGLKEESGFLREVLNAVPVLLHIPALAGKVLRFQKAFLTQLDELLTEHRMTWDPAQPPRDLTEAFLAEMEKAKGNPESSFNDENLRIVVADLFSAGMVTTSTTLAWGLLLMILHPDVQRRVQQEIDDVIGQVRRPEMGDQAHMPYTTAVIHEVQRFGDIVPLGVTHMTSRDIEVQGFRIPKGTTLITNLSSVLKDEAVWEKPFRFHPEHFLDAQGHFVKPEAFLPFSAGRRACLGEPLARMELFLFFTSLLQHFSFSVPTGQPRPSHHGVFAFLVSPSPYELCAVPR

CYP2C19 [9] = target: T2, CYP2C19; assay: Qualitative substrate disappearance assay; assay type: in vitro ADME; parameters: purchased CYPEX CYP008; host or cells: Escherichia coli; conditions: 20 pmols rCYP, 1.0 µmol/L substrate, 30 minutes
Description: All reactions were performed in triplicate in 96‐well plates. […] The substrate was diluted to 40% ACN so that the percent organic component in the final solution was maintained at 1%. […] The reactions were initiated by addition of NADPH after a pre‐incubation of 5 minutes at 37°C. All reactions were terminated by the addition of 150 µL of ice‐cold ACN at either 0 minute (control) or 30 minutes (reaction). This was followed by centrifugation at 4500 g for 20 minutes. An aliquot (50 µL) supernatant was collected and 5 µL was injected and analyzed by liquid chromatography/tandem mass spectrometry (LC/MS/MS). Metabolism was signified qualitatively by loss of substrate from the media using the relationship: %remaining compound=[…]Peak area atT30min/Peak area atT0min×100.

CYP1A2 [10] = target: T1, CYP1A2; assay: Enzyme kinetics of hydroxylated metabolites formation; assay type: in vitro ADME; parameters: purchased CYPEX CYP001; host or cells: Escherichia coli; conditions: CYP1A2, formation of cis‐4‐OH‐PZQ
Description: The reactions were carried out in duplicate at each time point. Incubation conditions used for the determination of K M and V max were optimized for linearity with respect to time and protein concentrations. […] Metabolites were analyzed by LC‐MS/MS as described below. The K M and V max values of each marker substrate were determined using nonlinear least squares regression analysis in GraFit software (version 3.0, Erithacus Software Limited) and SigmaPlot Enzyme Kinetics Module for Windows 7.0 (SPSS, Inc).
The well‐stirred model was used to estimate the hepatic clearance (CLH) due to metabolism.

Row | Structure (SMILES) | Contribution of CYP1A2 (CYP1A2 [1]) | Contribution of CYP2D6 (CYP2D6 [2]) | Contribution of CYP2C19 (CYP2C19 [3]) | Contribution of CYP3A4/5 (CYP3A4/5) | K M [SD] (HLM; formation of X‐OH‐PZQ) | V max [SD] (HLM; formation of X‐OH‐PZQ) | K M [SD] (HLM; formation of cis‐4‐OH‐PZQ) | V max [SD] (HLM; formation of cis‐4‐OH‐PZQ) | Fraction unbound in plasma (fu) [4] | half-life at 1 µmol/L (CYP1A2 [5]) | half-life at 1 µmol/L (CYP2C19 [6]) | Predicted CLH (CYP2C19 [7]) | Predicted CLuH,int (CYP2C19 [7]) | Predicted CLH (CYP2D6 [8]) | Predicted CLuH,int (CYP2D6 [8]) | Depletion of substrate by CYP2C19 (CYP2C19 [9]) | CLuH,int (CYP1A2 [10])
1 | O=C(C1CCCCC1)N1CC(=O)N2CCc3ccccc3[C@@H]2C1 [R‐PZQ, R‐Praziquantel] | 61% | 51% | 64% | 33% | 29.30 [4.020] µmol/L | 1.2 nmol/min/mg protein and 1.200 [0.06266] nmol/min/mg protein | 38.90 [5.469] µmol/L | 0.7572 [0.0447] nmol/min/mg protein | 0.2 | 7.54 min | 3.6 min | 3.904 mL/min/kg | 19.73 mL/min/kg | 0.2132 mL/min/kg | 0.860 mL/min/kg | complete depletion | 7.55 mL/min/kg and 7.550 mL/min/kg
2 | O=C(C1CCCCC1)N1CC(=O)N2CCc3ccccc3[C@H]2C1 [S‐PZQ, S‐Praziquantel] | 27% | 54% | 117% | 131% | 61.00 [22.12] µmol/L | 6.3 nmol/min/mg protein and 6.300 [1.102] nmol/min/mg protein | 44.30 [12.06] µmol/L | 0.2700 [0.02999] nmol/min/mg protein | 0.2 | 16 min | 4.13 min | 5.600 mL/min/kg | 30.71 mL/min/kg | 0.1712 mL/min/kg | 0.660 mL/min/kg | complete depletion | 0.83 mL/min/kg and 0.8300 mL/min/kg
